Measured values from publication PMC4474691, “Leukemia-Associated Mutations in Nucleophosmin Alter Recognition by CRM1: Molecular Basis of Aberrant Transport” (PLoS ONE, 2015).
Where two headings read alike, the source gives them in different places.

Experiments:
wild type CRM1 = test: Fluorescence anisotropy binding assay, wild type CRM1; design: species or system mouse; conditions: TFP-PKI 50 nM, 25°C, 20 mM Tris/HCl pH 7.4, wild type CRM1, compared with CRM1^HA
Excerpt: For recombinant production in E. coli, we subcloned wild type NPM, as well as mutants A and E, as N-terminal (His)10 –ZZ tagged constructs in pTG-A20 vector [22]. The original clone of wild type mouse CRM1, N-terminally fused to a His—ZZ tag was a kind gift of Dr. Dirk Görlich (Max Planck Institute for Biophysical Chemistry, Göttingen). We generated the high affinity CRM1 mutant (CRM1^HA) from a clone provided by Dr. Murray Stewart (MRC Laboratory of Molecular Biology, Cambridge). […]
(§1) Fluorescence anisotropy binding assays
To estimate CRM1 binding affinities for NES motifs we monitored binding with a fluorescence-polarization assay based on previously described approaches. The increase in fluorescence anisotropy of TFP/YFP when the TFP/YFP-NES construct (50 nM) binds to 0–60 μM CRM1 (either CRM^HA or wild type) was recorded at 25°C with a 8100 SLM-Aminco spectrofluorometer in buffer 20 mM Tris/HCl, pH 7.4, 50 mM NaCl, 5 mM DTT, 2 mM MgCl2. […]
Fig 4 Binding of CRM1 to TFP-NES constructs. […] Fraction bound was calculated from the relative increase in fluorescence anisotropy of TFP (λexc 463 nm, λem 500 nm). […]
We next used the TFP-(NES) constructs to monitor CRM1^HA binding to each motif, using the change in fluorescence anisotropy upon complex formation as a readout (Fig 4B), as previously described. […]

CRM1^HA [1] = molecular target: T1, CRM1^HA (Mus musculus, UniProt Q6P5F9, L431A/V430A/V432A); test: Ni-NTA chromatography of TFP-NES / CRM1^HA complex formation; type: binding; conditions: 2.5 mg His-tagged TFP construct on 1 mL Histrap FF, 1 mL CRM1^HA 18 μM; 50 mM Tris/HCl pH 8.0, 500 mM NaCl; SDS-PAGE
T1 construct: His-ZZ (cleaved yes); made in house; host or cells: Escherichia coli BL21-CodonPlus (DE3)
Excerpt: Although the relative potency of the NESs acquired by the different NPM mutants has been compared using an in vivo export assay, their CRM1-binding affinities have not yet been determined. We cloned the NESs of mutant A and E as C-terminal fusions to a teal fluorescent protein (TFP) (Fig 4A). As a reference, we generated an equivalent construct with the well-characterized NES of protein kinase inhibitor (PKI). We first tested the binding of CRM1^HA to the TFP-NES constructs using Ni-NTA chromatography. His-tagged TFP constructs were bound to the Ni-NTA column, and an excess of untagged CRM1^HA was then injected (S4 Fig).
Supplementary file pone.0130610.s004.tif: S4 Fig TFP-NES / CRM1^HA complex formation shown by Ni-NTA chromatography. 2.5 mg of the His-tagged TFP construct were loaded on a 1 mL Histrap FF (GE Healthcare) in buffer 50 mM Tris/HCl, pH 8.0, 500 mM NaCl, 1 mM TCEP, 2 mM MgCl2, 5% glycerol, containing 15 mM imidazole. After washing with the same buffer, 1 mL of CRM1^HA at 18 μM was injected at 0.1 mL/min flow rate. Unbound CRM1^HA was collected, and then bound proteins were eluted with 2 M imidazole. SDS-PAGE of elution fractions: Unbound (free) CRM1^HA and the fraction eluted with imidazole, containing both the His-tagged TFP construct along with bound CRM1^HA. (TIF) Click here for additional data file.

CRM1^HA [2] = molecular target: T1, CRM1^HA; test: Isothermal titration calorimetry, CRM1^HA / NES; type: binding; conditions: ITC, 20°C; for Kd: read-out: KD
Procedure: Isothermal titration calorimetry (ITC)
ITC measurements were carried out using a VIP-ITC MicroCalorimeter (MicroCal, Inc., Northampton, MA). TFP and YFP constructs, as well as CRM1^HA, were dialyzed in a buffer containing 20 mM HEPES, pH 7.4, 50 mM NaCl, 1 mM TCEP, 1 mM MgCl2, and degassed prior to the experiment. Untagged peptides (AS: QDLCLAVEEVSLRK, AL: EAIQDLCLAVEEVSLRK, ES: QDLWQSLAQVSLRK and EL: EAIQDLWQSLAQVSLRK), N-acetylated and 95% pure, were purchased from Proteogenix (Schiltigheim, France) and resuspended in the ITC buffer. Measurements were performed at 20°C. TFP-NES, YFP-NES or NES peptides at 35–180 μM were titrated onto CRM1^HA at 2–14 μM. Injections of 6 μL were performed at 320 seconds interval (the first injection always was of 1 μL and is not considered in data analysis). To determine the thermodynamic parameters of NPM / importin interaction, importin α, importin Δα or importin α/β at 45–60 μM were titrated onto NPM (1–1.2 μM pentamer) in 50 mM Tris/HCl, pH 7.5, 100 mM NaCl, 2 mM TCEP, and 10% glycerol. […] “Reverse” titrations, where 20–30 μM NPM was titrated onto 7–10 μM of the different importins were also performed and yielded similar results.
The reaction heat of each injection is related to the calorimetric enthalpy of binding, ΔH^0. The binding isotherms, ΔH^0 vs. molar ratio, were analyzed with an independent binding sites model using MicroCal Origin software. The fit of the binding curve yields the binding constant KA (KD = 1/KA) and the enthalpy ΔH^0 of the binding reaction. The Gibbs free energy of binding ΔG^0 and the entropy ΔS^0 are determined from the basic thermodynamic expressions: ΔG^0 = -RTlnKA = ΔH^0−TΔS^0, where R and T are the gas constant and the absolute temperature, respectively.
Fig 5 Analysis of CRM1^HA/TFP-NES interaction by ITC. Isothermal titration of CRM1^HA with TFP-mutE(NES). […] The titration of negative control TFP-Cter (180 μM) onto CRM1^HA (14 μM) (circles) is also shown for comparison.

CRM1^HA [3] = molecular target: T1, CRM1^HA; test: Fluorescence anisotropy binding assay, CRM1^HA; conditions: 0–60 μM CRM1^HA, 25°C
Procedure: as §1
To estimate CRM1 binding affinities for NES motifs we monitored binding with a fluorescence-polarization assay based on previously described approaches. The increase in fluorescence anisotropy of TFP/YFP when the TFP/YFP-NES construct (50 nM) binds to 0–60 μM CRM1 (either CRM^HA or wild type) was recorded at 25°C with a 8100 SLM-Aminco spectrofluorometer in buffer 20 mM Tris/HCl, pH 7.4, 50 mM NaCl, 5 mM DTT, 2 mM MgCl2. Excitation and emission wavelengths were 463, 500 nm for TFP and 463, 533 nm for YFP, and slits width 4 and 8 nm, respectively.
Fig 4 Binding of CRM1 to TFP-NES constructs. (A) Scheme of the engineered TFP constructs, showing the sequence of the NES motifs. Φ residues are highlighted in red. (B) Titration of CRM1 onto the different TFP constructs (50 nM), at 25°C, in buffer 20 mM Tris/HCl, pH 7.4, 50 mM NaCl, 5 mM DTT, 2 mM MgCl2: Left panel: Binding of CRM1^HA (solid symbols) or wild type CRM1 (empty symbols) to TFP-PKI(NES). Right panel: Binding of CRM1^HA to TFP-mutE(NES) (triangles) and TFP-mutA(NES) (squares). Fraction bound was calculated from the relative increase in fluorescence anisotropy of TFP (λexc 463 nm, λem 500 nm). Error bars correspond to at least three measurements per CRM1 concentration.
We next used the TFP-(NES) constructs to monitor CRM1^HA binding to each motif, using the change in fluorescence anisotropy upon complex formation as a readout (Fig 4B), as previously described. […] The different nature of the fluorescent tag, and/or the linker between the fluorescent protein and the NES (2 residues longer in the YFP-PKI construct) could explain the discrepancy. […] To isolate the CRM1 / NES interaction under study from the influence of the tag protein, we have also conducted binding assays with peptides corresponding to the NES motifs (see below).

CRM1 = conditions: cited from earlier work
Excerpt: Two sequence motifs in the core domain of NPM (residues 42–61 and 94–102) (Fig 1) have been investigated as candidate NESs. In addition, we have detected a further putative NES in the C-terminal region (see below). However, it is still unclear to what extent any of these sequences represents NPM physiological NESs.

importin α/β = importin α/β binding of nucleoplasmin; cited from earlier work
Excerpt: Our study has explored the molecular determinants of both NPM export (CRM1/NES) and import (importin α/β/NLS). […] This lower affinity could be related to the fact that NPM NLS includes one basic residue less in the major cluster of the bipartite motif than NP NLS. […] This, together with the very low affinity of CRM1 for wild type NPM and significant avidity for nucleolar comp ...

CRM1^HA [4] = molecular target: T1, CRM1^HA; conditions: previously described, CRM1^HA binding to YFP-PKI(NES); cited from earlier work
Excerpt: We next used the TFP-(NES) constructs to monitor CRM1^HA binding to each motif, using the change in fluorescence anisotropy upon complex formation as a readout (Fig 4B), as previously described.

[5] = NES ligand (35–180 μM) titrated onto CRM1^HA (2–14 μM), 20 mM HEPES pH 7.4, 50 mM NaCl, 1 mM TCEP, 1 mM MgCl2, independent binding sites model

T1 sequence (Q6P5F9 1-1062 V430A/L431A/V432A limits assumed): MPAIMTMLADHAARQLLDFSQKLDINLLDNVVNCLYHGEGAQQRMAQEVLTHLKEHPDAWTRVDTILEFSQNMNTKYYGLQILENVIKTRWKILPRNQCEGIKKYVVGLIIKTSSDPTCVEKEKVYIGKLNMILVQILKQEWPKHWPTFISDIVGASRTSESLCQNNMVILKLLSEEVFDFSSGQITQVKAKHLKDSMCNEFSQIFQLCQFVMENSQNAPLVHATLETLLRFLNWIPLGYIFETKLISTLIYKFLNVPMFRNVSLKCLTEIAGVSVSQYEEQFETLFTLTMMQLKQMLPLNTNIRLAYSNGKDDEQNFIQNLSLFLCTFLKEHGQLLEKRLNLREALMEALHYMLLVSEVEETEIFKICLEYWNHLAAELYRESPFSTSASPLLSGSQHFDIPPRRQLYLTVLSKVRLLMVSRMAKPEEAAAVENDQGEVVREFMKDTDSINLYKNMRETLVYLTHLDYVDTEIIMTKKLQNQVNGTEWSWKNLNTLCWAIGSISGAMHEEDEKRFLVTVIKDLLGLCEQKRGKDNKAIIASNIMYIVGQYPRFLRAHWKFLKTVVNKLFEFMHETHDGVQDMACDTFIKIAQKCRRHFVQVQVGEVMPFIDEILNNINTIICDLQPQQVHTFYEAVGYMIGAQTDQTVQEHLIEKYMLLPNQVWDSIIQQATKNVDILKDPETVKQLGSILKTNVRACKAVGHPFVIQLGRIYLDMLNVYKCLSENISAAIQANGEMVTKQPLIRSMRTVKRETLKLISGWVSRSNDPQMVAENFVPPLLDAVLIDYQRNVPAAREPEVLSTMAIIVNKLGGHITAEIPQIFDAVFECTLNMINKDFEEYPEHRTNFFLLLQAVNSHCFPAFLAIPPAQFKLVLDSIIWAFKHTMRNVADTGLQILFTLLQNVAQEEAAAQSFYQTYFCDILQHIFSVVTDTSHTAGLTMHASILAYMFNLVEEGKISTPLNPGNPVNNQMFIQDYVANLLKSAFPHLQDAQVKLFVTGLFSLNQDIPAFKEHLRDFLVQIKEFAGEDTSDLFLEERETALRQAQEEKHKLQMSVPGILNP

In the case of LALKLAGLDI [TFP-PKI(NES)], the “binding of wild type CRM1” value (wild type CRM1) is reported as “much weaker than that of CRM1^HA” and the “CRM1^HA binding in Ni-NTA chromatography” value (CRM1^HA [1]) is reported as “stronger than its binding to TFP- mutE(NES)”.
For “DLCLAVEEVSLRK [TFP-mutA(NES), NES of NPM mutant A as C-terminal fusion to teal fluorescent protein]”, the Kd (CRM1^HA [2]; [5]) was 2380 ± 698 nM, the ΔH (CRM1^HA [2]; NES ligand titrated onto CRM1^HA, 20 mM HEPES pH 7.4) was -14.5 ± 6.2 kcal/mol and the “-TΔS” value (CRM1^HA [2]; NES ligand titrated onto CRM1^HA, 20 mM HEPES pH 7.4, from ΔG = ΔH − TΔS) was 6.9 ± 6.1 kcal/mol. The “n (binding stoichiometry)” value (CRM1^HA [2]; NES ligand titrated onto CRM1^HA, 20 mM HEPES pH 7.4, low n of peptides might result from limited solubility) was 0.54 ± 0.27, the ΔG (CRM1^HA [2]; NES ligand titrated onto CRM1^HA, 20 mM HEPES pH 7.4, ΔG = -RTlnKA) was -7.6 ± 0.1 kcal/mol and the Kd (CRM1^HA [2]; TFP-NES titrated onto CRM1^HA, 20 mM HEPES pH 7.4, rounded) was 2400 nM. The Kd (CRM1^HA [3]; TFP-NES 50 nM, pH 7.4, rounded, read-out: apparent KD) was 5000 nM, the Kd (CRM1^HA [3]; TFP/YFP-NES construct 50 nM, 20 mM Tris/HCl pH 7.4, 50 mM NaCl, 5 mM DTT, 2 mM MgCl2, at least three measurements per CRM1 concentration, read-out: apparent KD (C50)) was 4970 ± 1180 nM and the “CRM1^HA binding in Ni-NTA chromatography” value (CRM1^HA [1]) was “not even detected in these conditions”.
For “residues 42–61: candidate NES motif in the core domain of NPM (LSLRTVSLGAGAKDELHIVE; UniProt P06748 42-61, looked up, fragment)”, the “binding to CRM1” value (CRM1) is given as “no binding to CRM1”.
In the case of “nucleoplasmin: homologous protein nucleoplasmin”, the Kd (importin α/β) is listed as 57 nM.
For “YFP-PKI(NES): previously described YFP-PKI(NES) construct (LALKLAGLDI; fusion to YFP (carrier omitted); linker stated to be 2 residues longer than in TFP construct) [reference compound]”, the Kd (CRM1^HA [2]; [5]) is listed as 18 ± 3 nM and the Kd (CRM1^HA [4]) is listed as 25 nM.
